The experiment deals with glucose/galactose binding protein (GGBP) (Escherichia coli, UniProt P0AEE5). In words: […] galactose competition binding assay.

This passage reports Ki results from paper PMC2742562 (ACS chemical biology, 2009).

Molecules are shown by their SMILES.

Chain of glucose/galactose binding protein (GGBP) (P0AEE5 24-332 limits assumed): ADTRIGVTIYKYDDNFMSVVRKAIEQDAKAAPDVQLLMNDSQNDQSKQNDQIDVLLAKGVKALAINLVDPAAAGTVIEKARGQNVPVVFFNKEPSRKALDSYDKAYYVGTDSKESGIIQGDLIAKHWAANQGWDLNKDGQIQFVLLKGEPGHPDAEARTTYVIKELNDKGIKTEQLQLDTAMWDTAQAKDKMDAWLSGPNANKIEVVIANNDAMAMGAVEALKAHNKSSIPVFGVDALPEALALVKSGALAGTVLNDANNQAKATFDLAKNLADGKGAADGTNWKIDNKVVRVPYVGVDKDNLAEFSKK

With `OC[C@H]1O[C@@H](OCCO[C@H]2[C@H](O)[C@@H](CO)OC(O)[C@@H]2O)[C@H](O)[C@@H](O)[C@@H]1O` (stereo partly drawn) [DWI, 3-O-(2'-beta-D-glucopyanosyloxyethyl)-D-glucose], the Ki (usually the dissociation constant of the complex between target and ligand, obtained from inhibition or displacement) was found to be 27 ± 7 µM.
